From PMC12202571, “Reversal of ABCG2-mediated drug resistance by tinodasertib (ETC-206)” (Frontiers in Pharmacology, 2025)

Legend:
ABCG2 [1] = biological target: T1, ABCG2 (Homo sapiens, UniProt Q9UNQ0); test: vanadate-sensitive ATPase assay in ABCG2 membrane vesicles (colorimetric phosphate); supported by [3H]-mitoxantrone efflux inhibition in cells; assay type: biochemical
T1 construct: ABCG2-containing membrane vesicles

ABCG2 [2] = biological target: T2, ABCG2 (Homo sapiens, UniProt Q9UNQ0)
T2 sequence (Q9UNQ0 1-655): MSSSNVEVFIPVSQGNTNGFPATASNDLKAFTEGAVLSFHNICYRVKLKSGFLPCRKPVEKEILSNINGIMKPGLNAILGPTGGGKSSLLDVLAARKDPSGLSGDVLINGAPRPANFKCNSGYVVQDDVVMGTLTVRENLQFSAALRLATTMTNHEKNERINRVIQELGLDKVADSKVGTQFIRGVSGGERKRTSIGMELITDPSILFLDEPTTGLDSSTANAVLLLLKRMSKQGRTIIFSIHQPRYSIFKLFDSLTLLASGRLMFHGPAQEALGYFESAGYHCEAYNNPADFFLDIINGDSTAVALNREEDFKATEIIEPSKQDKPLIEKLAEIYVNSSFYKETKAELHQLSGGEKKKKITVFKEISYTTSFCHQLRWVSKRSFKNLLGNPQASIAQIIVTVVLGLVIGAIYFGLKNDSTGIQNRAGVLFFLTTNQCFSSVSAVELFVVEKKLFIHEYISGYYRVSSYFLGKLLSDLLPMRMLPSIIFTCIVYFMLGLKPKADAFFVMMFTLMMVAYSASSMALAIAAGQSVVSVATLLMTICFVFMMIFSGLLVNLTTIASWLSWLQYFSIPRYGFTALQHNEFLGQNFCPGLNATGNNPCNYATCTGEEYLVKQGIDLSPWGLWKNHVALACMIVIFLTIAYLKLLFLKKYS

| Compound | IC50 (ABCG2 [1]) [nM] | [3H]-mitoxantrone accumulation and efflux in ABCG2-overexpressing versus parenta (ABCG2 [2]) |
| --- | --- | --- |
| N#Cc1ccc(-c2cnc3ccc(-c4ccc(C(=O)N5CCOCC5)cc4)cn23)cc1 [tinodasertib] | ~2000 |  |
| O=C1c2c(O)ccc(O)c2C(=O)c2c(NCCNCCO)ccc(NCCNCCO)c21 [mitoxantrone] |  | Efflux assays demonstrated a substantial reduction in [^3H]-mitoxantrone efflux from ABCG2-overexpressing cells |
